According to PubChem BioAssay (NCI):
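Tested at 5 concentrations; 48 h exposure; 96-well plates; endpoints linearly interpolated, else capped at highest concentration. TGI marks complete inhibition of growth.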

How the values were obtained:
Test in all cases: NCI-60 cell line screen, 48 h
MDA-MB-435 = system: MDA-MB-435
HL-60(TB) leukemia = system: HL-60(TB) leukemia
RPMI-8226 leukemia = system: RPMI-8226 leukemia
HCT-116 colon = system: HCT-116 colon
SW-620 colon = system: SW-620 colon
DU-145 prostate = system: DU-145 prostate
HCT-15 colon = system: HCT-15 colon
KM12 colon = system: KM12 colon
PC-3 prostate = system: PC-3 prostate

Row | Structure (SMILES) | TGI (MDA-MB-435) [µM] | TGI (HL-60(TB) leukemia) [µM] | TGI (RPMI-8226 leukemia) [µM] | TGI (HCT-116 colon) [µM] | TGI (SW-620 colon) [µM] | TGI (DU-145 prostate) [µM] | TGI (HCT-15 colon) [µM] | TGI (KM12 colon) [µM] | TGI (PC-3 prostate) [µM]
1 | COC(=O)CC1(CNC(=O)OCc2ccccc2)OCCO1 | > 100 | > 100 | > 100 | > 100 | > 100 | > 100 | > 100 | > 100 | > 100
2 | CCOP(=O)(/C=C\n1cnc2c(=O)n(C(C)=O)c(N)nc21)OCC | > 100 | > 100 | > 100 | > 100 | > 100 | > 100 | > 100 | > 100 | > 100
3 | CCSC1=N/C(=C\c2ccccc2O)C(Nc2ccc(C)cc2)=N1 | > 100 | > 100 | > 100 | > 100 | > 100 | > 100 | > 100 | > 100 | > 100
4 | COC(=O)C1=Nc2c(C)nn(-c3ccccc3)c2N=C(c2ccc(C)cc2)C1 | > 10 | > 10 | > 10 | > 10 | > 10 | > 10 | > 10 | > 10 | > 10
5 | O=C1c2cc3ccccc3cc2C2(c3ccc(Cl)cc3)N[C@H]3CCCC[C@@H]3N12 (stereo partly specified) | 93 | 55.6 | > 100 | 18.8 | 59.3 | 60.2 | > 100 | 48.2 | 42.6
6 | O=C1CCCc2c1c1c(n2Cc2ccccc2)-c2ccccc2C1=O | 38.2 | 58.7 | 24.3 | 31.1 | > 100 | > 100 | 34.7 | 47 | 96.6
7 | COc1cccc2cc(C(N)=O)c(=N)oc12 | > 100 | > 100 | > 100 | > 100 | > 100 | > 100 | > 100 | > 100 | > 100
8 | CC(=O)OCC1OC(n2c(N)c(C#N)c(-c3ccccc3)c(C#N)c2=S)C(OC(C)=O)C(OC(C)=O)C1OC(C)=O (stereo unspecified) | > 100 | > 100 | > 100 | > 100 | > 100 | > 100 | > 100 | > 100 | > 100
9 | O=C1C2C=CC1C1C(=O)OC(=O)C21 (stereo unspecified) | > 100 | > 100 | > 100 | > 100 | > 100 | > 100 | > 100 | > 100 | > 100
10 | CN1C(c2ccccc2)=CC(=O)C(O)=C(c2ccccc2)S1(=O)=O | > 100 | > 100 | > 100 | > 100 | > 100 | > 100 | > 100 | > 100 | > 100
11 | N#CCC(=O)Nn1c(CC#N)nnc1Cc1ccccc1 | > 100 | > 100 | > 100 | > 100 | > 100 | > 100 | > 100 | > 100 | > 100
12 | CN1CCC2(CC1)C(=O)N(N1CCCCCC1)C(=O)N2c1ccccc1 | > 100 | > 100 | > 100 | > 100 | > 100 | > 100 | > 100 | > 100 | > 100
13 | Cc1ccc2c(c1)NC(=O)CCSSCCC(=O)N2 | > 100 | > 100 | > 100 | > 100 | > 100 | > 100 | > 100 | > 100 | > 100
14 | CC(=O)Nc1ncc(Sc2ccccc2C(=O)O)s1 | > 100 | > 100 | > 100 | > 100 | > 100 | > 100 | > 100 | > 100 | > 100
15 | CC(C)CCC1(O)O[C@H]2C[C@H]3[C@@H]4CCC5CC(=O)C=C[C@]5(C)[C@H]4CC[C@]3(C)[C@H]2[C@@H]1C (stereo partly specified) | 24.5 | 17.7 | 21.4 | 19.3 | 26.4 | 28.2 | 23.4 | 26.5 | 17.4
16 | CC(=O)Oc1ccc2c(c1)c1c(=O)oc(N(C)C)nc1n2Cc1ccccc1 | > 100 | > 100 | > 100 | > 100 | > 100 | > 100 | > 100 | > 100 | > 100
17 | O=C(O)CSCC(=O)Nc1ccc2cccc3c2c1CC3 | > 100 | > 100 | > 100 | > 100 | > 100 | > 100 | > 100 | > 100 | > 100
18 | NNC(=O)c1c(Cl)c(Cl)c(Cl)c(Cl)c1-c1nc2ccccc2[nH]1 | 6.38 | 38.1 | > 100 | 32.6 | 67.6 | 38.3 | 40.9 | 29.1 | > 100
19 | O=C(CSc1nc(=O)[nH]c2nc[nH]c12)Nc1ccccc1 | > 100 | > 100 | > 100 | > 100 | > 100 | > 100 | > 100 | > 100 | > 100
